Reference: PMC4492764, “Evaluation of biomarkers for in vitro prediction of drug-induced nephrotoxicity: comparison of HK-2, immortalized human proximal tubule epithelial, and primary cultures of human proximal tubular cells” (Pharmacology Research & Perspectives, 2015)
Where a name gives a salt, the structure may show the parent alone.

Key:
Format in all cases: cell-based, human
[1] = tested on: hRPTECs; assay: Resazurin cytotoxicity assay in hRPTECs
Method: (§1) For the MTT assay, the medium was then removed, the dried crystals were resuspended in 60 μL of Dimethyl sulfoxide (DMSO), and the absorbance was read at 570 nm. For the resazurin assay, the fluorescence intensity was read using a PolarStar Omega plate reader (BMG Labtech; Mornington VIC, Australia) at excitation/emission 560/590 nm. All assays were performed at least three times. […] La Jolla, CA). Both MTT and resazurin assays were performed three times, with two technical replicates in each assay.

[2] = tested on: HK-2 cells; assay: Resazurin cytotoxicity assay in HK-2 cells
Method: as §1

[3] = tested on: NGAL mRNA; assay: NGAL mRNA qRT-PCR in HK-2 cells; parameters: key to Upregulation of NGAL HK-2 R: +: statistically significant increase; −: no significant increase; conditions: for Upregulation of NGAL HK-2 R: mRNA levels, 72 h time point
Method: HK-2 cells (ATCC CRL-2190; Manassas, VA) were maintained in DMEM/F12 (Life Technologies; Sydney, NSW, Australia) supplemented with 5 μg/mL insulin, 5 μg/mL transferrin, 5 ng/mL sodium selenite (ITS; Roche; […] (passage 2) and culture kits were purchased from Lonza. […] were maintained in Renal Epithelial Cell BulletKitTM (CC-3190, Lonza) at 37°C and 5% CO2 atmosphere. Cells were passaged to 96-well plates with a density of 4000 cells/well. After 24 h culture, compounds with different concentration series were added into each well and incubated for 4, 24, 48, and 72 h. HK-2 and […] were treated with compounds for 4, 24, 48, and 72 h, then the cells were lysed and the RNA reverse transcribed with the TaqMan® Gene Expression Cells-to-CTTM Kit (Life Technologies) according to the manufacturer's instructions. […] Hs00273334_m1), Lcn2 (NGAL; Hs01008571_m1), and Csf1 (M-CSF; Hs00174164_m1). All probes span an exon-exon junction. The real-time quantitative reverse transcription PCR (qRT-PCR) was performed in a 10 μl final reaction mixture using a ViiA 7TM system (Applied Biosystems®, Sydney, NSW, Australia) based on the following thermo cycling conditions: 10 min at 95°C for one cycle, 15 sec at 95°C, 60 sec at 60°C for 40 cycles. The ViiA 7TM software was used for data analysis with Hprt1 expression used for normalization. All assays were performed at least three times, with at least two technical replicates in each assay.

[4] = tested on: KIM-1; assay: KIM-1 protein ELISA in HK-2 cells; parameters: key: +: statistically significant increase; −: no significant increase; conditions: protein levels in culture medium; 72 h time point
Method: HK-2 cells (ATCC CRL-2190; Manassas, VA) were maintained in DMEM/F12 (Life Technologies; Sydney, NSW, Australia) supplemented with 5 μg/mL insulin, 5 μg/mL transferrin, 5 ng/mL sodium selenite (ITS; Roche; […] (passage 2) and culture kits were purchased from Lonza. […] were maintained in Renal Epithelial Cell BulletKitTM (CC-3190, Lonza) at 37°C and 5% CO2 atmosphere. Cells were passaged to 96-well plates with a density of 4000 cells/well. After 24 h culture, compounds with different concentration series were added into each well and incubated for 4, 24, 48, and 72 h. KIM-1 (DY1750), NGAL (DY1757), and M-CSF (DY216) Duo-Set® ELISA kits were purchased from R&D systems (Minneapolis, MN). Sandwich-ELISA experiments were conducted following the manufacturer's instructions with slight modifications. A 96-well microplate (MaxiSorp®, Nunc, Thermo Scientific, NSW, Australia) was coated with 100 μL of capture antibodies (diluted 1:200 in PBS) and incubated overnight. The plate was then washed twice with washing buffer (0.05% Tween 20 in PBS, pH 7.4) and blocked by adding 300 μL of blocking buffer (1% bovine serum albumin (BSA) in PBS) for 1 h at room temperature. After washing two times with PBS, 100 μL of samples (cell culture media or cell lysates) or standards were then added to each well and incubated for 2 h at room temperature. The biotinylated detection antibodies were then diluted in blocking buffer, added to each well and incubated for 2 h. Horseradish peroxidase (HRP)-labeled streptavidin (100 μL) was then added to bind to detection antibodies. To each well, 100 μL of substrate solution (1:1 mixture of H2O2 and tetramethylbenzidine) was added and incubated for 20 min before reaction termination with 50 μL of stop solution (2N H2SO4). The optical density of each well was measured at 450 nm using a POLARstar Omega plate reader (BMG Labtech). All assays were performed at least three times, with at least two technical replicates in each assay.

[5] = tested on: M-CSF mRNA; assay: M-CSF mRNA qRT-PCR in hRPTECs; parameters: key to Upregulation of M-CSF hRPTECs R: +: statistically significant increase; −: no significant increase; conditions: for M-CSF mRNA levels in hRPTECs: 72 h (Fig.4C); for Upregulation of M-CSF hRPTECs R: mRNA levels, 72 h time point
Method: Hs00273334_m1), Lcn2 (NGAL; Hs01008571_m1), and Csf1 (M-CSF; Hs00174164_m1). All probes span an exon-exon junction. The real-time quantitative reverse transcription PCR (qRT-PCR) was performed in a 10 μl final reaction mixture using a ViiA 7TM system (Applied Biosystems®, Sydney, NSW, Australia) based on the following thermo cycling conditions: 10 min at 95°C for one cycle, 15 sec at 95°C, 60 sec at 60°C for 40 cycles. The ViiA 7TM software was used for data analysis with Hprt1 expression used for normalization. All assays were performed at least three times, with at least two technical replicates in each assay.

[6] = tested on: M-CSF; assay: M-CSF protein ELISA in hRPTECs; parameters: key: +: statistically significant increase; −: no significant increase; conditions: protein levels in culture medium; 72 h time point
Method: Sandwich-ELISA experiments were conducted following the manufacturer's instructions with slight modifications. A 96-well microplate (MaxiSorp®, Nunc, Thermo Scientific, NSW, Australia) was coated with 100 μL of capture antibodies (diluted 1:200 in PBS) and incubated overnight. The plate was then washed twice with washing buffer (0.05% Tween 20 in PBS, pH 7.4) and blocked by adding 300 μL of blocking buffer (1% bovine serum albumin (BSA) in PBS) for 1 h at room temperature. After washing two times with PBS, 100 μL of samples (cell culture media or cell lysates) or standards were then added to each well and incubated for 2 h at room temperature. The biotinylated detection antibodies were then diluted in blocking buffer, added to each well and incubated for 2 h. Horseradish peroxidase (HRP)-labeled streptavidin (100 μL) was then added to bind to detection antibodies. To each well, 100 μL of substrate solution (1:1 mixture of H2O2 and tetramethylbenzidine) was added and incubated for 20 min before reaction termination with 50 μL of stop solution (2N H2SO4). The optical density of each well was measured at 450 nm using a POLARstar Omega plate reader (BMG Labtech). All assays were performed at least three times, with at least two technical replicates in each assay.

[7] = 72 h, highest concentrations gentamicin 1 mmol/L, CsA 50 μmol/L, cell type not given
[8] = 72 h incubation, Mean ± Standard deviation, n = 3

CNC(C)C1CCC(N)C(OC2C(N)CC(N)C(OC3OCC(C)(O)C(NC)C3O)C2O)O1 (centres unmarked) [Gentamicin, gentamicin sulfate]
toxicity in resazurin assay at highest concentration tested [1, 7]: no toxicity | toxicity in resazurin assay at highest concentration tested [2, 7]: no toxicity | Upregulation of NGAL HK-2 R [3]: − | Upregulation of KIM-1 HK-2 P [4]: −

N.N.[Cl][Pt][Cl] [Cisplatin, cisplatin]
M-CSF mRNA levels in hRPTECs [5]: significant results | Upregulation of M-CSF hRPTECs R [5]: + | NGAL mRNA level in HK-2 cells ([3]; 72 h exposure, P < 0.01): clearly increased | Upregulation of NGAL HK-2 R [3]: + | Upregulation of M-CSF hRPTECs P [6]: + | Upregulation of KIM-1 HK-2 P [4]: −

Colistin sulfate
CC50 [1, 8]: 177 ± 15 µM | CC50 [2, 8]: > 300 µM | M-CSF mRNA levels in hRPTECs [5]: significant results | Upregulation of M-CSF hRPTECs R [5]: + | Upregulation of NGAL HK-2 R [3]: − | Upregulation of M-CSF hRPTECs P [6]: − | Upregulation of KIM-1 HK-2 P [4]: −
